One block for each compound: values may come before it. Active and inactive are the calls of the source.
Key:
[1] = biological target: Cytochrome P450 2C19 (Homo sapiens, UniProt P33261); assay: Cytochrome panel assay with activity outcomes. Panel member name: p450-cyp2c19 Compounds with AC50 equal or less than 10 uM are considered active; assay type: functional
[2] = biological target: T1, Cytochrome P450 3A4 (Homo sapiens, UniProt P08684);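 further: CYP3A4 tested as one member of a cytochrome P450 panel screen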
T1 sequence (P08684 whole entry): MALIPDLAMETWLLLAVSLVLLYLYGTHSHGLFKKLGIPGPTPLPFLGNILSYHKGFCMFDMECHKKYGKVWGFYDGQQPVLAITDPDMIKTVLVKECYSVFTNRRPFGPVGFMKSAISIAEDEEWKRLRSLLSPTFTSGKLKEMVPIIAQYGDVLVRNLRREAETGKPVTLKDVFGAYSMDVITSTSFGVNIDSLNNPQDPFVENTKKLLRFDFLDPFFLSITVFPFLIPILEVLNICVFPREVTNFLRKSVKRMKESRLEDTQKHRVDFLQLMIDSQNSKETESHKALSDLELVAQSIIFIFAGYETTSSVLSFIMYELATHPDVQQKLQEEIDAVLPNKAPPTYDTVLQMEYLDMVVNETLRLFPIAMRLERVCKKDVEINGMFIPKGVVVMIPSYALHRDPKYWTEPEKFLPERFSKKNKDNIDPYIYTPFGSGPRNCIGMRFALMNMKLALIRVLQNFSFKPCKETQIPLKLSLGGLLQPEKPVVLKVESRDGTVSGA

[3] = biological target: Cytochrome P450 2D6 (Homo sapiens, UniProt P10635);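 further: CYP2D6 member of a cytochrome P450 panel assay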
Cytochrome P450 2D6, sequence (P10635 whole entry): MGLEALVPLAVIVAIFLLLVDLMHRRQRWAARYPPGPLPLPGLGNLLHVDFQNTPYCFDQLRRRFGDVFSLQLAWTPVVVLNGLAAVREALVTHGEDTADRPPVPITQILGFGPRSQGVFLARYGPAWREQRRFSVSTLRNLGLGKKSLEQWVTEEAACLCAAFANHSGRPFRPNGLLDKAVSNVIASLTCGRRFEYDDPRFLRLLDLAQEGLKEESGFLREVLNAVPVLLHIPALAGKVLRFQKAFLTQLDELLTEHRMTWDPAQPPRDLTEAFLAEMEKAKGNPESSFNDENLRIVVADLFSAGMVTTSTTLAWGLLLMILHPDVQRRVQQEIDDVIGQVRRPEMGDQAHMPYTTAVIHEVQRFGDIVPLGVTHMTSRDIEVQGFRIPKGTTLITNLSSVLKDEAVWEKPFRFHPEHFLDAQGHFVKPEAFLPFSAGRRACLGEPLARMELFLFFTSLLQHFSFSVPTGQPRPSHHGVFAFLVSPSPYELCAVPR

[4] = biological target: Cytochrome P450 2C9 (Homo sapiens, UniProt P11712)
Cytochrome P450 2C9, sequence (P11712 whole entry): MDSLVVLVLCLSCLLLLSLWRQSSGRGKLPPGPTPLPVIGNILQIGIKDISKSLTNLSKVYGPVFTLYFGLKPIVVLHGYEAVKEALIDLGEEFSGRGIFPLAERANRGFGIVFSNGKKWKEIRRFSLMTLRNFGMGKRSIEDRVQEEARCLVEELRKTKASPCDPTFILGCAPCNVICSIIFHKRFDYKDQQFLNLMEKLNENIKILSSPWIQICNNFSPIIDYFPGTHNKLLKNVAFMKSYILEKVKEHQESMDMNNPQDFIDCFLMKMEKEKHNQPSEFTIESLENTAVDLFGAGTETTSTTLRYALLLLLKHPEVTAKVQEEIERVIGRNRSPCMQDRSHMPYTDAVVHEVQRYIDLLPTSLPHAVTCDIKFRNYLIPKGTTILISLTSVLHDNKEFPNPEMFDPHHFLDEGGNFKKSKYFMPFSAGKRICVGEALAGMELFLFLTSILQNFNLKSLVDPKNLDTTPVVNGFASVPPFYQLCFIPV

[5] = biological target: T1, Cytochrome P450 3A4; remark: listed apart in the source
[6] = biological target: T2, Heat shock factor protein 1 (Mus musculus, UniProt P38532); assay: decrease of HSF1-responsive luciferase luminescence – cell-based, NIH3T3, dose retest, confirmation (AID 2382); assay type: functional;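 further: NIH3T3 fibroblasts with HSF1-driven luciferase reporter stressed by proteasome inhibitor MG132; luminescence from HSF1-driven luciferase expression after 8 hours of MG132 stress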
T2 sequence (P38532 whole entry): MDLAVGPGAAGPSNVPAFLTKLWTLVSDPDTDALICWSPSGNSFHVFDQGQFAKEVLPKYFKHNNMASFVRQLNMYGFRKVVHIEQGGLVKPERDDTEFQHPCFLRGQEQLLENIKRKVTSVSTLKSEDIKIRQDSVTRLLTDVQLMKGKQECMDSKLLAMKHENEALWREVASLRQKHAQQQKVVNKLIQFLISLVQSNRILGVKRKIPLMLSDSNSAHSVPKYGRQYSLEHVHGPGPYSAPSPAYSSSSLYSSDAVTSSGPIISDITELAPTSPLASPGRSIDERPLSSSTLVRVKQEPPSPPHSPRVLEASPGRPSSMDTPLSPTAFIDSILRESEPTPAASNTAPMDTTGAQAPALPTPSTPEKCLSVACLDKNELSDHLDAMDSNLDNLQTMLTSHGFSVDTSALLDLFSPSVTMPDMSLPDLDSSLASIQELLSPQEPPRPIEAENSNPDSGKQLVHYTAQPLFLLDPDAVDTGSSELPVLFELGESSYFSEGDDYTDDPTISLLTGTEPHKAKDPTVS

[7] = biological target: Voltage-dependent T-type calcium channel subunit alpha-1H (Homo sapiens, UniProt O95180); assay type: functional;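 further: channel activity triggered by adding a high calcium stimulation buffer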
Voltage-dependent T-type calcium channel subunit alpha-1H, sequence (O95180 whole entry): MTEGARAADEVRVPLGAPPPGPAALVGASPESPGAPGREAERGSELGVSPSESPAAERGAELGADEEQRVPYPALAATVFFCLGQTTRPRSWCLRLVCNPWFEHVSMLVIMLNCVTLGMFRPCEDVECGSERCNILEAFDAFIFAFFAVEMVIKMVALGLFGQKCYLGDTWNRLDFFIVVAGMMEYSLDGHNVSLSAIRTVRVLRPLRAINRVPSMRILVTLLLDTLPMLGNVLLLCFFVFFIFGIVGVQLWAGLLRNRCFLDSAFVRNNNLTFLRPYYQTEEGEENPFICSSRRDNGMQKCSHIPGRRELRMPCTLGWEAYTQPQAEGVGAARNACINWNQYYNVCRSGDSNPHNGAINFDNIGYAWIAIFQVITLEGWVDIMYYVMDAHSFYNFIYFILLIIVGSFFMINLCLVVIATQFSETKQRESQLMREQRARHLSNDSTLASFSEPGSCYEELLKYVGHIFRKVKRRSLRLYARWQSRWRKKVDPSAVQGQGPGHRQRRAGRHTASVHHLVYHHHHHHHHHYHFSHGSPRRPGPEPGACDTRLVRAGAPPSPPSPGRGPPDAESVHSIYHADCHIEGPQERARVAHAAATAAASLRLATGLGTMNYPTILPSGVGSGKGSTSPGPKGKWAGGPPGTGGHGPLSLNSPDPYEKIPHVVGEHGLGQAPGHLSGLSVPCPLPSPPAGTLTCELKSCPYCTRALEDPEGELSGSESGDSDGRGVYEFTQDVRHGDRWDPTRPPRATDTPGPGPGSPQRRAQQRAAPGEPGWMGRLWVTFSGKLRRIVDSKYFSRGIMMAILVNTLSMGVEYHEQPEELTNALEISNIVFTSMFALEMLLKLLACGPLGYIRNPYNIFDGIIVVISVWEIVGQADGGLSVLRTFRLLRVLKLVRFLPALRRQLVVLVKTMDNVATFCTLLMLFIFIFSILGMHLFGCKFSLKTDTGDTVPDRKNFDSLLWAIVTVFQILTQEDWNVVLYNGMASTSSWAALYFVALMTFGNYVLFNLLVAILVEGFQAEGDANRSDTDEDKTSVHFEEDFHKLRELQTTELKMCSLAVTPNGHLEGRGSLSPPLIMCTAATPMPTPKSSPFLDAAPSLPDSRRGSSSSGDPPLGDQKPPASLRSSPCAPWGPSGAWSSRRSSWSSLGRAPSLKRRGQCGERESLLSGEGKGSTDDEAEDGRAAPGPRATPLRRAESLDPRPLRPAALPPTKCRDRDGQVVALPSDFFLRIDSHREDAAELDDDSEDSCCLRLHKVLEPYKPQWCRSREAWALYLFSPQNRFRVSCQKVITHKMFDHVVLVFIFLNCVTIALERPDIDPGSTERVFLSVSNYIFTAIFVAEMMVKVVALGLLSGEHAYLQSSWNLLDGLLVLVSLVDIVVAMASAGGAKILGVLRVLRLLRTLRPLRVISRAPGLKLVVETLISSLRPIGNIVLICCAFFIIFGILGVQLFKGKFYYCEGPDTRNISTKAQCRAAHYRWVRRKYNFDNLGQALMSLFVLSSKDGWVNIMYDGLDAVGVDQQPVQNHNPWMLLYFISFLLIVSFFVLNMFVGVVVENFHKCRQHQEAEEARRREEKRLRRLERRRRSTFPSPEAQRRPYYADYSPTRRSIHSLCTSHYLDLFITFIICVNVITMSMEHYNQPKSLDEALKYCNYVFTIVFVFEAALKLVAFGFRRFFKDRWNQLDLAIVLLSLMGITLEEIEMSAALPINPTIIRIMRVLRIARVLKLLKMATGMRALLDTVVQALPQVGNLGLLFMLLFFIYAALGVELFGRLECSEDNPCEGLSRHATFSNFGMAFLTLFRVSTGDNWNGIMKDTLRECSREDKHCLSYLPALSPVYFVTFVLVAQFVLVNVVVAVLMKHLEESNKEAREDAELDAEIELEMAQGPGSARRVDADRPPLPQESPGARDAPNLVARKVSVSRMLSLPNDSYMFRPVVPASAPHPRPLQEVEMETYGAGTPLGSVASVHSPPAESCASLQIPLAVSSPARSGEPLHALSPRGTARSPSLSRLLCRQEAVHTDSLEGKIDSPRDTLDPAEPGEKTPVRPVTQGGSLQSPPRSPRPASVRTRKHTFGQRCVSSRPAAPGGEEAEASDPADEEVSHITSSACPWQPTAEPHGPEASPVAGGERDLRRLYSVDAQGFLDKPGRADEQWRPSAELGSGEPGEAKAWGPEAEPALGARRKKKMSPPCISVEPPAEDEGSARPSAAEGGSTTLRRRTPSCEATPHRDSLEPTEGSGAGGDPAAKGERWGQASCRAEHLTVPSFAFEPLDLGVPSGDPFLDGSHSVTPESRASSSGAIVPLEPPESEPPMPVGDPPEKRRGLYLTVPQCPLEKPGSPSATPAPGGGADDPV

[8] = MIN6 cell viability loss – mouse insulinoma, cytotoxicity control, dose response (AID 2122); assay type: functional;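 further: confirmatory high-throughput counterscreen run to flag cytotoxic compounds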
[9] = decrease of insulin promoter-GFP reporter – imaging, high-content screening, mouse beta cells (AID 1628); assay type: functional; conditions: MIN6
[10] = biological target: Photoreceptor-specific nuclear receptor (Homo sapiens, UniProt Q9Y5X4); assay type: functional, cell-based;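 further: CHO-S cells with Gal4-NCOR and VP16-NR2E3 two-hybrid luciferase reporter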
Photoreceptor-specific nuclear receptor, sequence (Q9Y5X4 whole entry, the tested form may be a part): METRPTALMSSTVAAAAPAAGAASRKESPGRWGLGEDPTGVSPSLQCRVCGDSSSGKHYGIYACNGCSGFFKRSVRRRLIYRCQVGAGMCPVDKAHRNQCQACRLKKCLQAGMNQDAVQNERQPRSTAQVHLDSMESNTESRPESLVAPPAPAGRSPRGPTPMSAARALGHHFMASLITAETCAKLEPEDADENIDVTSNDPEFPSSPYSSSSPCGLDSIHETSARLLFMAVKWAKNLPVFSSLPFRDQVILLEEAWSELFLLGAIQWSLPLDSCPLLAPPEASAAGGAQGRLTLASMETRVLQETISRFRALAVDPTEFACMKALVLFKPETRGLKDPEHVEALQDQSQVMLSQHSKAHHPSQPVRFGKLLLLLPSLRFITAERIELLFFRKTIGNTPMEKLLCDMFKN

[11] = biological target: T3, Tyrosine-protein phosphatase non-receptor type 22 (Homo sapiens, UniProt Q9Y2R2); assay: SAR LYP1 Fluorescent Assay using pCAP substrate for In Vitro dose response studies - Set 2. [Related pubchem assays (depositor defined):AID1779, AID1784, AID2135, AID449727]; assay type: functional
T3 sequence (Q9Y2R2 whole entry): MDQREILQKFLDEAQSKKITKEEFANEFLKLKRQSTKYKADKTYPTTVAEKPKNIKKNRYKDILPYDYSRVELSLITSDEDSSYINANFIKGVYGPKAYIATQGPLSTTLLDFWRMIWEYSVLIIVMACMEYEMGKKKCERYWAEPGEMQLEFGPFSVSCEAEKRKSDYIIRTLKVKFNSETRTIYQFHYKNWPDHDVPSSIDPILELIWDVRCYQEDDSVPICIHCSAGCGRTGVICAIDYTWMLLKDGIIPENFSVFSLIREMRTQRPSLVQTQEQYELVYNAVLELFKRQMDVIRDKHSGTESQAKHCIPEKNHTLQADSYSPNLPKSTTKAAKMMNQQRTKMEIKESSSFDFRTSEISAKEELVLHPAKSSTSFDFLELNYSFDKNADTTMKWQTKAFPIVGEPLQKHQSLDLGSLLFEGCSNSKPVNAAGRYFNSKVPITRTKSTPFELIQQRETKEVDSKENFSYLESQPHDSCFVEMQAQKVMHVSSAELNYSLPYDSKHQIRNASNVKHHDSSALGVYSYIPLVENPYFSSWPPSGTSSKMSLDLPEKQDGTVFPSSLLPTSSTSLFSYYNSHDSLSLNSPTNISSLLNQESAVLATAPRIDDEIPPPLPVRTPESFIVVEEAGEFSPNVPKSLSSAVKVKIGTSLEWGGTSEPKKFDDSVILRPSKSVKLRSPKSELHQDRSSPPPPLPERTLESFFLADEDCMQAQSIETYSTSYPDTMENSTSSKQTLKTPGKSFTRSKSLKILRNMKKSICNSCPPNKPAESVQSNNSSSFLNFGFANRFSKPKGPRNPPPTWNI

[12] = biological target: T4, Tyrosine-protein phosphatase non-receptor type 12 (Homo sapiens, UniProt Q05209); assay: SAR Selectivity Analysis of small molecule inhibitors of PEST using pCAP in a fluorescence assay. [Related pubchem assays (depositor defined):AID1779, AID1784, AID2135]; assay type: functional
T4 sequence (Q05209 whole entry): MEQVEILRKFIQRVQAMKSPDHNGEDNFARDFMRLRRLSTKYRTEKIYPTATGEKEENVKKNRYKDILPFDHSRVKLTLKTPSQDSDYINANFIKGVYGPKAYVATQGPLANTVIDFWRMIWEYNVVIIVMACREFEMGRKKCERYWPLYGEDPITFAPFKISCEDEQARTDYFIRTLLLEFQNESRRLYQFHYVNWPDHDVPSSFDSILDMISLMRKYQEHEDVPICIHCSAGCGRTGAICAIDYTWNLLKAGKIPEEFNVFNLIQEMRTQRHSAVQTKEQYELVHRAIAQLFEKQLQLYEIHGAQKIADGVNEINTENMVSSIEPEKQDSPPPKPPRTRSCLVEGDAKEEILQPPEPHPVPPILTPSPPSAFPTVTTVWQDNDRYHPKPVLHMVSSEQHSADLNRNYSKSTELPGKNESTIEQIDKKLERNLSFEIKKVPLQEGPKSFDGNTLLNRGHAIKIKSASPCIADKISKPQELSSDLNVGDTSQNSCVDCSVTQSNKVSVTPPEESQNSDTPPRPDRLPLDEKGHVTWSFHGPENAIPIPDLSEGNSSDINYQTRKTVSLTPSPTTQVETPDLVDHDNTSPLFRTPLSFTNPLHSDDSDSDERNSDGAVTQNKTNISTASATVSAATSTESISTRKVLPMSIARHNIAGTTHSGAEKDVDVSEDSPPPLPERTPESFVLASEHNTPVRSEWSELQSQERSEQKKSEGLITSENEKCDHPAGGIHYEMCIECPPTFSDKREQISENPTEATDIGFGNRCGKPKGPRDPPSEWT

[13] = biological target: T3, Tyrosine-protein phosphatase non-receptor type 22; assay: SAR LYP1 Fluorescent Assay using OMFP substrate for In Vitro dose response studies - Set 2. [Related pubchem assays (depositor defined):AID1779, AID1784, AID2140, AID449726, AID488869]; assay type: functional
[14] = biological target: T3, Tyrosine-protein phosphatase non-receptor type 22; assay: inhibition of lymphoid tyrosine phosphatase LYP – biochemical, pCAP fluorogenic substrate, fluorescence, set 3, SAR follow-up (AID 449727); assay type: functional
[15] = biological target: T3, Tyrosine-protein phosphatase non-receptor type 22; assay: SAR LYP1 Fluorescent Assay using OMFP substrate for In Vitro dose response studies - Set 3. [Related pubchem assays (depositor defined):AID1779, AID1784, AID2140, AID2686]; assay type: functional
[16] = biological target: T5, Tyrosine-protein phosphatase non-receptor type 7 (Homo sapiens, UniProt P35236); assay: inhibition of hematopoietic tyrosine phosphatase HePTP – biochemical, set 2, SAR follow-up (AID 449736); assay type: functional
T5 sequence (P35236 whole entry): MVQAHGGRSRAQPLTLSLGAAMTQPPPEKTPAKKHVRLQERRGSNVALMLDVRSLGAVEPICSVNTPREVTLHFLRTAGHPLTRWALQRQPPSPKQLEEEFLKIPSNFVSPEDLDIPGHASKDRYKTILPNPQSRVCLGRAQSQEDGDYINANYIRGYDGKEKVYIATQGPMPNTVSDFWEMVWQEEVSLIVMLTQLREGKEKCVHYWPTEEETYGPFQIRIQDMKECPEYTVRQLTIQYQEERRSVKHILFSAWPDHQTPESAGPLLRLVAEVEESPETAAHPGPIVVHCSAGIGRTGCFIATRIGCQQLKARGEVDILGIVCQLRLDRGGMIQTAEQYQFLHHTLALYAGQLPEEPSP

[17] = tested on: INS1; assay: INS-1E survival protection against cytokine death – cell-based, luminescence, retest, dose response (AID 449756); assay type: functional; conditions: Rattus norvegicus;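 further: cell death triggered by IL-1 beta plus TNF-alpha plus IFN-gamma mixture; protective hits raise ATP signal compared with cytokine alone wells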
[18] = biological target: T6, Lysine-specific demethylase 4A (Homo sapiens, UniProt O75164); assay: inhibition of JMJD2A H3K9me3 demethylation – biochemical, DELFIA europium, cherry-picked samples, selectivity assay for GASC-1 inhibitor project, dose response (AID 488840)
T6 sequence (O75164 whole entry): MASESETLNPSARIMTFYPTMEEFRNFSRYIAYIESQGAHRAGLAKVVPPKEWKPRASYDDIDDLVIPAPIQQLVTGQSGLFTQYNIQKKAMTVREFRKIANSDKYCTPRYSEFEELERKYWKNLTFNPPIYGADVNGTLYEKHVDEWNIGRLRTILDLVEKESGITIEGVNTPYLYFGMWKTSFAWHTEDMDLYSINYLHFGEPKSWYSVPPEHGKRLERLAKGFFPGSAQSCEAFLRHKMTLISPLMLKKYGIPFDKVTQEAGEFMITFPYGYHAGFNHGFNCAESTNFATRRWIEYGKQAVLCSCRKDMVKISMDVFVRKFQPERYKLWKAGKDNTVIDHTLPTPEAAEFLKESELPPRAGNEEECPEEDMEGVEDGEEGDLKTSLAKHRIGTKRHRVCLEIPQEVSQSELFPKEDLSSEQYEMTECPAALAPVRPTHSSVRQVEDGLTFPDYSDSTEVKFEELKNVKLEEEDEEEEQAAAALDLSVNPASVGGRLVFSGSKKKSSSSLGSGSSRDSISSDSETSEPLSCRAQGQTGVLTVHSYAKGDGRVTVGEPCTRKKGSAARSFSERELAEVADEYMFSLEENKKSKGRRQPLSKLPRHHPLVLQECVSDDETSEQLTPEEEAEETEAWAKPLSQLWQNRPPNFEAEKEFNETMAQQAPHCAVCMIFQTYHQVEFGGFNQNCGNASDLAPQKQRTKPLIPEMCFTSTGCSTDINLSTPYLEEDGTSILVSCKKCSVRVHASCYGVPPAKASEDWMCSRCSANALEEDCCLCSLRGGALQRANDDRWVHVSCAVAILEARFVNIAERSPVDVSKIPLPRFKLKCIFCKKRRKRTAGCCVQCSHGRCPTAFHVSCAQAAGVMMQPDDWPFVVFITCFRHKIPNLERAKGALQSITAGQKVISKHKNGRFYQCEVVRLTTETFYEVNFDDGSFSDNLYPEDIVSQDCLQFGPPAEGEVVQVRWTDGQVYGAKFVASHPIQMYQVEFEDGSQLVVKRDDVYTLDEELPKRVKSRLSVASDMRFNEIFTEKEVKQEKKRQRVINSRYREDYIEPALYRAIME

Cytochrome P450 2C19, sequence (P33261 whole entry): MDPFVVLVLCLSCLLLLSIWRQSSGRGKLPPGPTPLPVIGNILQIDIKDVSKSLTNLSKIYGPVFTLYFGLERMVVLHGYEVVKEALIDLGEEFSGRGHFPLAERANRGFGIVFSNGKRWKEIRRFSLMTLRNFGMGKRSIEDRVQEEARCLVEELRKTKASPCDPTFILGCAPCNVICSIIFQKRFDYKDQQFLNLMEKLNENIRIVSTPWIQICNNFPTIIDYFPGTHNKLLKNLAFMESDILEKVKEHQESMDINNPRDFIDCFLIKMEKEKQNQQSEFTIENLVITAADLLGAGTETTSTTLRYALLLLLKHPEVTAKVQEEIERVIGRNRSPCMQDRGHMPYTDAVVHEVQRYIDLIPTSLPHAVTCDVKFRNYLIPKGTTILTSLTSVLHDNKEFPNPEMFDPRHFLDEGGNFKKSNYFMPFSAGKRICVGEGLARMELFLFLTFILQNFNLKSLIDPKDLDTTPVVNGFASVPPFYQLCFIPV

- AC50 [1]: inconclusive
- AC50 [2]: 3.98 µM (inconclusive)
- AC50 [3]: inconclusive
- AC50 [4]: 3.16 µM (inconclusive)
Structure (SMILES): CC1(C)[C@@H]2CC[C@@](C)(C2)[C@H]1OC(=O)c1ccccc1C(=O)O

- IC50 [11]: > 100 µM (inactive)
- IC50 [12]: > 100 µM (inactive)
- IC50 [13]: > 100 µM (inactive)
- IC50 [14]: > 100 µM (inactive)
- IC50 [15]: > 100 µM (inactive)
- IC50 [16]: > 100 µM (inactive)
Structure (SMILES): C/C(=N/NC(=O)c1ccccc1)c1ccc(OCC(=O)O)cc1

- AC50 [18]: 0.644 µM (active)
Structure (SMILES): COc1cc2c(cc1OC)C1=C(C#N)COCN1CC2

More lines, now with the values behind:

Structure (SMILES): O=S(=O)(Cc1cc(Oc2ccccc2)nc(-c2ccccc2)n1)c1ccccc1
- AC50 [5]: inconclusive
- AC50 [3]: inconclusive
- EC50 [6]: > 195 µM (not active)
- EC50 [7]: 19.2 µM (active)

Structure (SMILES): Cc1nc2ncnn2c(N2CCN(c3cccc(C(F)(F)F)c3)CC2)c1C
- IC50 [8]: 3.77 µM (active)
- IC50 [9]: 2.94 µM (active)
- IC50 [10]: 0.838 µM (active)

Structure (SMILES): O=C(COc1ccc2ccccc2c1)N1CCN(Cc2c[nH]c3ccccc23)CC1
- IC50 [8]: 3.26 µM (active)
- AC50 [17]: 2.58 µM (active)
- IC50 [9]: 4.5 µM (active)
